In patent US12522602B2, “Derivatives having 2,3-dihydro-1H-indene or 2,3-dihydrobenzofuran moiety or pharmaceutically acceptable salt thereof and pharmaceutical compositions comprising the same” (YUHAN CORPORATION, priority 2019, dated 2026) one finds IC50 data, which are given here for 34 compounds.

The test deals with GM1 production in Jurkat cells. In words: cells. It counts as cell-based. To be noted: Homo sapiens, Jurkat, 72 h.
As usually defined, the IC50 is the concentration that gives 50% inhibition. A higher IC50 goes with lower potency. `COc1ccc(Cl)cc1-c1ccc2c(c1)CC(C)(C)C2NC(=O)O[C@@H]1CN2CCC1CC2` (stereo partly drawn) [Example 210, (S)-quinuclidin-3-yl (5-(5-chloro-2-methoxyphenyl)-2,2-dimethyl-2,3-dihydro-1H-inden-1-yl)carbamate]: the IC50 stood at 7.5 nM.

In turn, `Cc1ccc(F)c(-c2ccc3c(c2)CC(C)(C)C3NC(=O)O[C@@H]2CN3CCC2CC3)c1` (stereo partly drawn) [Example 211, (S)-quinuclidin-3-yl (5-(2-fluoro-5-methylphenyl)-2,2-dimethyl-2,3-dihydro-1H-inden-1-yl)carbamate] displayed an IC50 of 13.2 nM.

Regarding `CCOc1ccc(Cl)cc1-c1ccc2c(c1)CC(C)(C)C2NC(=O)O[C@@H]1CN2CCC1CC2` (stereo partly drawn) [Example 212, (S)-quinuclidin-3-yl (5-(5-chloro-2-ethoxyphenyl)-2,2-dimethyl-2,3-dihydro-1H-inden-1-yl)carbamate], the midpoint of inhibition, the IC50, lay at 19.1 nM.

`CCCOc1ccc(F)cc1-c1ccc2c(c1)CC(C)(C)C2NC(=O)O[C@@H]1CN2CCC1CC2` (stereo partly drawn) [Example 213, (S)-quinuclidin-3-yl (5-(5-fluoro-2-propoxyphenyl)-2,2-dimethyl-2,3-dihydro-1H-inden-1-yl)carbamate] had an IC50 of 39.8 nM.

Take `CCCOc1cccc(F)c1-c1ccc2c(c1)CC(C)(C)C2NC(=O)O[C@@H]1CN2CCC1CC2` (stereo partly drawn) [Example 214, (S)-quinuclidin-3-yl (5-(2-fluoro-6-propoxyphenyl)-2,2-dimethyl-2,3-dihydro-1H-inden-1-yl)carbamate]: it took 64.2 nM to reach half-maximal inhibition (IC50).

As for `Cc1ccc(-c2ccc3c(c2)CC(C)(C)C3NC(=O)O[C@@H]2CN3CCC2CC3)cc1F` (stereo partly drawn) [Example 215, (S)-quinuclidin-3-yl (5-(3-fluoro-4-methylphenyl)-2,2-dimethyl-2,3-dihydro-1H-inden-1-yl)carbamate], the IC50 came to 14.9 nM.

`CCCOc1ccc(-c2ccc3c(c2)CC(C)(C)C3NC(=O)O[C@@H]2CN3CCC2CC3)cc1F` (stereo partly drawn) [Example 216, (S)-quinuclidin-3-yl (5-(3-fluoro-4-propoxyphenyl)-2,2-dimethyl-2,3-dihydro-1H-inden-1-yl)carbamate] returned an IC50 of 28.7 nM.

Consider `CC(C)Oc1ccc(Cl)cc1-c1ccc2c(c1)CC(C)(C)C2NC(=O)O[C@@H]1CN2CCC1CC2` (stereo partly drawn) [Example 217, (S)-quinuclidin-3-yl (5-(5-chloro-2-isopropoxyphenyl)-2,2-dimethyl-2,3-dihydro-1H-inden-1-yl)carbamate], for which the IC50 was 72.1 nM.

As for `CCCCOc1cccc(-c2ccc3c(c2)CC(C)(C)C3NC(=O)O[C@@H]2CN3CCC2CC3)c1` (stereo partly drawn) [Example 218, (S)-quinuclidin-3-yl (5-(3-butoxyphenyl)-2,2-dimethyl-2,3-dihydro-1H-inden-1-yl)carbamate], the IC50 was determined as 6.7 nM.

With `Cc1cc(F)cc(-c2ccc3c(c2)CC(C)(C)C3NC(=O)O[C@@H]2CN3CCC2CC3)c1` (stereo partly drawn) [Example 219, (S)-quinuclidin-3-yl (5-(3-fluoro-5-methylphenyl)-2,2-dimethyl-2,3-dihydro-1H-inden-1-yl)carbamate], the IC50 was 30.4 nM.

`Cc1ccc(F)cc1-c1ccc2c(c1)CC(C)(C)C2NC(=O)O[C@@H]1CN2CCC1CC2` (stereo partly drawn) [Example 220, (S)-quinuclidin-3-yl (5-(5-fluoro-2-methylphenyl)-2,2-dimethyl-2,3-dihydro-1H-inden-1-yl)carbamate] displayed an IC50 of 17.6 nM.

On to `CC1(C)Cc2cc(-c3cc(C(F)(F)F)ccc3Cl)ccc2C1NC(=O)O[C@@H]1CN2CCC1CC2` (stereo partly drawn) [Example 221, (S)-quinuclidin-3-yl (5-(2-chloro-5-(trifluoromethyl)phenyl)-2,2-dimethyl-2,3-dihydro-1H-inden-1-yl)carbamate], for which the IC50 was 16.9 nM.

In turn, `COc1cc(F)cc(-c2ccc3c(c2)CC(C)(C)C3NC(=O)O[C@@H]2CN3CCC2CC3)c1` (stereo partly drawn) [Example 222, (S)-quinuclidin-3-yl (5-(3-fluoro-5-methoxyphenyl)-2,2-dimethyl-2,3-dihydro-1H-inden-1-yl)carbamate] had an IC50 of 25.6 nM.

With `Cc1ccc(Cl)c(-c2ccc3c(c2)CC(C)(C)C3NC(=O)O[C@@H]2CN3CCC2CC3)c1` (stereo partly drawn) [Example 223, (S)-quinuclidin-3-yl (5-(2-chloro-5-methylphenyl)-2,2-dimethyl-2,3-dihydro-1H-inden-1-yl)carbamate], the IC50 is 5.2 nM.

As for `COc1cc(-c2ccc3c(c2)CC(C)(C)C3NC(=O)O[C@@H]2CN3CCC2CC3)cc(C(F)(F)F)c1` (stereo partly drawn) [Example 224, (S)-quinuclidin-3-yl (5-(3-methoxy-5-(trifluoromethyl)phenyl)-2,2-dimethyl-2,3-dihydro-1H-inden-1-yl)carbamate], the IC50 turned out to be 18.8 nM.

In the case of `CC1(C)Cc2cc(-c3ccc(F)cc3Cl)ccc2C1NC(=O)O[C@@H]1CN2CCC1CC2` (stereo partly drawn) [Example 225, (S)-quinuclidin-3-yl (5-(2-chloro-4-fluorophenyl)-2,2-dimethyl-2,3-dihydro-1H-inden-1-yl)carbamate], half-maximal inhibition (IC50) required 21.3 nM.

In turn, `COc1cc(-c2ccc3c(c2)CC(C)(C)C3NC(=O)O[C@@H]2CN3CCC2CC3)ccc1F` (stereo partly drawn) [Example 226, (S)-quinuclidin-3-yl (5-(4-fluoro-3-methoxyphenyl)-2,2-dimethyl-2,3-dihydro-1H-inden-1-yl)carbamate] displayed an IC50 of 57 nM.

`Cc1ccc(-c2ccc3c(c2)CC(C)(C)C3NC(=O)O[C@@H]2CN3CCC2CC3)cc1C` (stereo partly drawn) [Example 227, (S)-quinuclidin-3-yl (5-(3,4-dimethylphenyl)-2,2-dimethyl-2,3-dihydro-1H-inden-1-yl)carbamate] displayed an IC50 of 10.2 nM.

As for `Cc1cc(F)ccc1-c1ccc2c(c1)CC(C)(C)C2NC(=O)O[C@@H]1CN2CCC1CC2` (stereo partly drawn) [Example 228, (S)-quinuclidin-3-yl (5-(4-fluoro-2-methylphenyl)-2,2-dimethyl-2,3-dihydro-1H-inden-1-yl)carbamate], the IC50 amounted to 48.6 nM.

Compound `CC1(C)Cc2cc(-c3ccc(C(F)(F)F)cc3F)ccc2C1NC(=O)O[C@@H]1CN2CCC1CC2` (stereo partly drawn) [Example 229, (S)-quinuclidin-3-yl (5-(2-fluoro-4-(trifluoromethyl)phenyl)-2,2-dimethyl-2,3-dihydro-1H-inden-1-yl)carbamate] had an IC50 of 56.2 nM.

The compound `COc1ccc(F)c(-c2ccc3c(c2)CC(C)(C)C3NC(=O)O[C@@H]2CN3CCC2CC3)c1` (stereo partly drawn) [Example 230, (S)-quinuclidin-3-yl (5-(2-fluoro-5-methoxyphenyl)-2,2-dimethyl-2,3-dihydro-1H-inden-1-yl)carbamate] returned an IC50 of 30.8 nM.

For `COc1cccc(-c2ccc3c(c2)CC(C)(C)C3NC(=O)O[C@@H]2CN3CCC2CC3)c1F` (stereo partly drawn) [Example 231, (S)-quinuclidin-3-yl (5-(2-fluoro-3-methoxyphenyl)-2,2-dimethyl-2,3-dihydro-1H-inden-1-yl)carbamate], the IC50 was 24.3 nM.

Compound `COc1ccc(C(C)C)cc1-c1ccc2c(c1)CC(C)(C)C2NC(=O)O[C@@H]1CN2CCC1CC2` (stereo partly drawn) [Example 232, (S)-quinuclidin-3-yl (5-(5-isopropyl-2-methoxyphenyl)-2,2-dimethyl-2,3-dihydro-1H-inden-1-yl)carbamate] returned an IC50 of 12.5 nM.

The compound `Cc1ccc(-c2ccc3c(c2)CC(C)(C)C3NC(=O)O[C@@H]2CN3CCC2CC3)c(F)c1` (stereo partly drawn) [Example 233, (S)-quinuclidin-3-yl (5-(2-fluoro-4-methylphenyl)-2,2-dimethyl-2,3-dihydro-1H-inden-1-yl)carbamate] came in with an IC50 of 23.3 nM.

Regarding `COc1ccc(F)cc1-c1ccc2c(c1)CC(C)(C)C2NC(=O)O[C@@H]1CN2CCC1CC2` (stereo partly drawn) [Example 234, (S)-quinuclidin-3-yl (5-(5-fluoro-2-methoxyphenyl)-2,2-dimethyl-2,3-dihydro-1H-inden-1-yl)carbamate], half-maximal inhibition (IC50) was put at 13.6 nM.

`Cc1cc(-c2ccc3c(c2)CC(C)(C)C3NC(=O)O[C@@H]2CN3CCC2CC3)co1` (stereo partly drawn) [Example 235, (S)-quinuclidin-3-yl (2,2-dimethyl-5-(5-methylfuran-3-yl)-2,3-dihydro-1H-inden-1-yl)carbamate] came in with an IC50 of 6.5 nM.

Regarding `COc1c(F)cccc1-c1ccc2c(c1)CC(C)(C)C2NC(=O)O[C@@H]1CN2CCC1CC2` (stereo partly drawn) [Example 236, (S)-quinuclidin-3-yl (5-(3-fluoro-2-methoxyphenyl)-2,2-dimethyl-2,3-dihydro-1H-inden-1-yl)carbamate], it took 32.4 nM to reach half-maximal inhibition (IC50).

In the case of `CC1(C)Cc2cc(-c3cccc(F)c3Cl)ccc2C1NC(=O)O[C@@H]1CN2CCC1CC2` (stereo partly drawn) [Example 237, (S)-quinuclidin-3-yl (5-(2-chloro-3-fluorophenyl)-2,2-dimethyl-2,3-dihydro-1H-inden-1-yl)carbamate], half-maximal inhibition (IC50) was put at 29.2 nM.

Compound `CC1(C)Cc2cc(-c3csc4ccccc34)ccc2C1NC(=O)O[C@@H]1CN2CCC1CC2` (stereo partly drawn) [Example 238, (S)-quinuclidin-3-yl (5-(benzo[b]thiophen-3-yl)-2,2-dimethyl-2,3-dihydro-1H-inden-1-yl)carbamate] came in with an IC50 of 13.2 nM.

Take `CCCOc1cc(F)ccc1-c1ccc2c(c1)CC(C)(C)C2NC(=O)O[C@@H]1CN2CCC1CC2` (stereo partly drawn) [Example 239, (S)-quinuclidin-3-yl (5-(4-fluoro-2-propoxyphenyl)-2,2-dimethyl-2,3-dihydro-1H-inden-1-yl)carbamate]: inhibition was half-maximal at 48.9 nM (IC50).

In turn, `Cc1cc(-c2ccc3c(c2)CC(C)(C)C3NC(=O)O[C@@H]2CN3CCC2CC3)cc(C(C)(C)C)c1` (stereo partly drawn) [Example 240, (S)-quinuclidin-3-yl (5-(3-(tert-butyl)-5-methylphenyl)-2,2-dimethyl-2,3-dihydro-1H-inden-1-yl)carbamate] returned a half-inhibitory concentration (IC50) of 51.3 nM.

In turn, `CCOc1ccc(Cl)c(-c2ccc3c(c2)CC(C)(C)C3NC(=O)O[C@@H]2CN3CCC2CC3)c1` (stereo partly drawn) [Example 241, (S)-quinuclidin-3-yl (5-(2-chloro-5-ethoxyphenyl)-2,2-dimethyl-2,3-dihydro-1H-inden-1-yl)carbamate] registered an IC50 of 51.3 nM.

In the case of `CC1(C)Cc2cc(-c3ccc(Cl)c(F)c3)ccc2C1NC(=O)O[C@@H]1CN2CCC1CC2` (stereo partly drawn) [Example 242, (S)-quinuclidin-3-yl (5-(4-chloro-3-fluorophenyl)-2,2-dimethyl-2,3-dihydro-1H-inden-1-yl)carbamate], it took 64.4 nM to reach half-maximal inhibition (IC50).

`Cc1cccc(-c2ccc3c(c2)CC(C)(C)C3NC(=O)O[C@@H]2CN3CCC2CC3)c1F` (stereo partly drawn) [Example 243, (S)-quinuclidin-3-yl (5-(2-fluoro-3-methylphenyl)-2,2-dimethyl-2,3-dihydro-1H-inden-1-yl)carbamate] returned an IC50 of 21.4 nM.
